Measured values: publication PMC6301270 (MedChemComm, 2018)
Entries after “also recorded” stand apart in the source; their conditions may differ. Where two headings read alike, the source gives them in different places.

Assays:
[1] = tested on: T.b. brucei (strain 427) bloodstream form parasites; test: T.b. brucei single concentration screen (10 μM); conditions: Trypanosoma brucei, read-out: T.b.brucei % viability (10 µM)
T. brucei culture = tested on: T. brucei culture; design: method as in PMID 22148754, PMID 20360736; conditions: through selective inhibition of T. brucei N-myristoyl transferase; cited from earlier work
[2] = tested on: T.b. brucei (strain 427) bloodstream form parasites; test: Trypanosoma brucei assay, dose–response (this study); assay type: cell-based; conditions: for IC50: Trypanosoma brucei; for Selectivity index: calculated as IC50(HeLa)/IC50(T.bb)
T.b. brucei = tested on: T.b. brucei; design: method as in https://www.pathogenbox.org/; conditions: Table 1, kinetoplastid category; ref https://www.pathogenbox.org/; read-out: T. brucei brucei IC50 (μM) Pathogen Box; cited from earlier work
HeLa cells = test: HeLa cell assay (cytotoxicity); assay type: cell-based; conditions: Homo sapiens
Method: HeLa cells were cultured in DMEM medium supplemented with 10% fetal bovine serum and antibiotics (penicillin/streptomycin/amphotericin B) at 37 °C in a 5% CO2 incubator. On the day prior to compound addition, cells were plated in 96-well plates at 2 × 10^4 cells per well. Compounds were added to the cells in 3-fold serial dilutions and incubation at 37 °C in a 5% CO2 incubator continued for 48 hours. Twenty μl resazurin reagent (0.5 mM resazurin in phosphate-buffered saline) was added to each well and, after a 2-hour incubation, fluorescence (Exc560/Em590) was measured in a plate reader. Percentage cell viability in drug-treated wells was calculated from the fluorescent readings obtained relative to those in wells containing control, untreated cells. Plots of % cell viability vs. log[compound] were used to determine IC50 values by non-linear regression analysis using GraphPad Prism.

HepG2 cells = tested on: HepG2 cells; design: method as in Pathogen Box; conditions: ref Pathogen Box, read-out: CC50 against HepG2 cells; cited from earlier work
[3] = tested on: M. tuberculosis CTP synthase, PyrG; design: method as in PMID 28475832; conditions: cited from earlier work
mycobacterial = tested on: mycobacterial; design: method as in PMID 23268609; conditions: inhibits the ATPase domain of DNA gyrase B; cited from earlier work
Leishmaniasis donovani = tested on: Leishmaniasis donovani; design: method as in Duffy et al.; conditions: ref Duffy et al.; cited from earlier work
plasmodial = tested on: plasmodial; design: method as in PMID 22390538; conditions: screen of the SoftFocus kinase library; cited from earlier work
kinetoplastid = tested on: kinetoplastid; design: method as in PMID 25740547; conditions: screen of 1.8 million compounds; cited from earlier work
[4] = HeLa, 48 h, read-out: HeLa IC50 (μM)
[5] = Table 2, remaining Pathogen Box, 48 hours at 37 °C, resazurin, read-out: T. brucei brucei IC50 (μM) This study
[6] = pIC50 values (M), read-out: pIC50 (T.b. brucei), this study (converted)
[7] = Table 2, HeLa cells, 48 hours, resazurin, read-out: HeLa IC50

Compound | viability at 10 µM [1] | T.b. brucei inhibition in words, this study [2] | IC50 [2, 5] | IC50 [2, 6] | IC50 (HeLa cells; [7]) | also measured
Cc1nn(C)c(C)c1NS(=O)(=O)c1c(Cl)cc(-c2ccnc(N3CCNCC3)c2)cc1Cl [Compound 1, Cc1nn(C)c(C)c1NS(=O)(=O)c2c(Cl)cc(cc2Cl)c3ccnc(c3)N4CCNCC4] | 2% | – | – | – | – | Inhibition of T. brucei culture (T. brucei culture): moderate inhibitor; IC50 ([2]; 48 h, read-out: T. brucei brucei IC50 (μM) This study): 11 µM; IC50 (T.b. brucei): < 0.13 µM; IC50 (HeLa cells; [4]): 2.8 µM
CCc1c(C)nc(-n2nc(C)cc2NC(=O)c2ccccc2SC)[nH]c1=O [Compound 39, CCC1=C(C)N=C(NC1=O)n2nc(C)cc2NC(=O)c3ccccc3SC] | 2% | sub-micromolar inhibitors; also recorded: sub-micromolar range | 0.59 µM | < 1 µM | 2.6 µM | Selectivity index [2]: 4.4; CC50 (HepG2 cells): 1300 nM
CC(Oc1ccccc1)C(=O)Nc1nc(-c2ccccn2)cs1 (stereo not shown) [Compound 40, CC(Oc1ccccc1)C(=O)Nc2nc(cs2)c3ccccn3] | 2% | sub-micromolar range | 0.76 µM | < 1 µM | 8.4 µM | Inhibition of M. tuberculosis CTP synthase, PyrG [3]: moderate inhibitors
O=C(COc1cccc(F)c1)Nc1nc(-c2ccccn2)cs1 [Compound 43, Fc1cccc(OCC(=O)Nc2nc(cs2)c3ccccn3)c1] | 3% | – | – | – | – | Inhibition of M. tuberculosis CTP synthase, PyrG [3]: moderate inhibitors; IC50 (HeLa cells; [4]): > 25 µM
CN1CCN(CCCOc2ncc(Nc3ncc(-c4ccc(C(F)(F)F)c(F)c4)nc3C(N)=O)cn2)CC1 [Compound 46, CN1CCN(CCCOc2ncc(Nc3ncc(nc3C(=O)N)c4ccc(c(F)c4)C(F)(F)F)cn2)CC1] | 3% | sub-micromolar inhibitors; also recorded: sub-micromolar range | 0.87 µM | < 1 µM | 4.8 µM | Selectivity index [2]: 5.5; In vitro anti-mycobacterial activity (mycobacterial): potent; CC50 (HepG2 cells): 3900 nM
COc1cc(-c2cc(-c3ccc(S(C)(=O)=O)cc3)cnc2N)ccc1O [Compound 53, COc1cc(ccc1O)c2cc(cnc2N)c3ccc(cc3)S(=O)(=O)C] | 1% | sub-micromolar inhibitors; also recorded: sub-micromolar range; also recorded: activity in the nanomolar range | 0.33 µM | < 1 µM | > 25 µM | Inhibition of Leishmaniasis donovani (Leishmaniasis donovani): moderate inhibitor; Anti-plasmodial activity (plasmodial): potent and selective
TCMDC 142497 [Compound 70] | – | – | – | – | – | Kinetoplastid inhibition (kinetoplastid): potent kinetoplastid inhibitor
